A short description of assay [1]: In situ calcium ion-selective electrode (ISE) measurement of COM crystallization. The conditions noted are these: for percent reduction in COM growth rate: 20 μg/ml additive, supersaturated calcium oxalate S=5.4, stirred, ISE slope in first 40 min vs control. On the procedure:
The COM growth rate was measured as the slope (dCa/dt) of decreasing Ca^2+ concentration within the first 40 min of crystallization. […] The percent reduction in COM growth rate was calculated by comparing the ISE slopes of peptides and control using the formula, Percent Reduction=[1−(dCa/dt)peptide/(dCa/dt)control]×100%. Data are averages of 2 or 3 measurements (error bars equal two standard deviations);
COM crystals for bulk crystallization studies were synthesized using a reported procedure that produces micron-sized crystals with large basal (100) surfaces. COM crystals prepared with molar composition 0.7 mM CaCl2: 0.7 mM Na2C2O4: 150 mM NaCl are referred to as the control. Growth solutions prepared with peptides used 20 μg/ml of the additive (unless otherwise stated).
As such, measurements reported herein were conducted at a single peptide concentration (20 μg/ml) to assess COM growth inhibition. To facilitate comparison of peptides in Table 1, Applicants calculated the percent reduction in COM growth rate using the relative difference in ISE slopes (units of ppm Ca^2+ per time) for peptide and control samples during the first 40 min of crystallization.
The slope of ISE curves (FIG. 2A) is the temporal change in free Ca^2+ concentration due to COM nucleation (primary and secondary) and crystal growth. Deconvoluting these two processes (nucleation and growth) from ISE data is nontrivial, particularly if one wishes to extract detailed kinetic information of COM growth rates. […] In the current study, the distinct advantage of ISE compared to more traditional approaches is its ease of use and the rapid time for data acquisition that enables high-throughput analysis of large peptide libraries.
A quantitative comparison of peptide efficacy for inhibiting COM crystallization was performed using in situ ISE measurements. The percent inhibition in COM growth rate was calculated using the relative difference in ISE slopes in the presence of 20 μg/mL peptide. […] The effect of Asp with Glu in peptide sequences was measured on COM growth inhibition (Table 2).

For assay [2] the following is noted: Wang et al. [11]; similar citrate concentration, lower supersaturation S=1.3; cited from earlier work.
A short description of assay [3]: Kinetic studies of COM growth at 60° C. using the calcium assay over 24 hours. As to conditions: 20 μg/mL peptide, 24-hour period. Here is the method: A second library of peptides containing glutamic acid (E) and alanine (A) amino acids was synthesized. The sequences of E-peptides shown in Table 2 were used in bulk crystallization studies and kinetic studies to assess their role as growth inhibitors or promoters of COM crystallization. […] These analyses were performed using the calcium assay to track the kinetics of crystallization over a 24-hour period. The calcium ion concentration in the supernatant solution was assessed at periodic times.
(§1) Free calcium concentration in the crystallization solution was measured by a colorimetric assay using Quantichrome DICA 500 Calcium assay kit (BioAssay Systems, Hayward, Calif.). Standard solutions (0, 0.1, 0.2, 0.3, 0.4, 0.5, and 1 mM) were prepared using calcium solutions provided with the kit. Detection reagent was prepared by mixing equal volumes of reagent A and reagent B according to manufacturer's instructions. A 10 μL sample was withdrawn from the top of each crystallization well without disturbing the bottom and dispensed into a 96-well microplate. 100 μL of detection reagent was added to each well and incubated for 3 minutes at room temperature. The absorbance was measured at 612 nm using Biotek Synergy H4 microplate reader (BioTek, Winooski, Vt.). Calcium concentration was determined using a calibration curve prepared from standard calcium solutions.

A short description of assay [4]: Bulk crystallization studies of COM crystal size and habit (optical microscopy, SEM, AFM). Here is the method: FIGS. 4A-4B show macroscopic characterization of COM crystals from bulk crystallization in solutions of 0.5 mM CaC2O4 and 20 μg/ml peptide. Optical microscopy was used to measure: Percent distribution of elongated hexagonal platelet (shaded bars) and diamond platelet (pattern bars) crystal morphologies (FIG. 4A); and length of the COM (100) basal surface measured along the direction (i.e. apical tip-to-tip distance) for hexagonal and diamond morphologies (FIG. 4B). Data in (FIG. 4A) and (FIG. 4B) are the average of three separate crystallization experiments performed at 60° C. for 3 days (error bars equal one standard deviation). Data for peptide D4 (diamond habit) was omitted based on too few crystals for statistical analysis;
COM crystals for bulk crystallization studies were synthesized using a reported procedure that produces micron-sized crystals with large basal (100) surfaces. COM crystals prepared with molar composition 0.7 mM CaCl2: 0.7 mM Na2C2O4: 150 mM NaCl are referred to as the control. Growth solutions prepared with peptides used 20 μg/ml of the additive (unless otherwise stated). The crystals were characterized by optical microscopy using a Leica DM2500-M microscope, scanning electron microscope (SEM) using a FEI 235 Dual-Beam Focused Ion-beam instrument, atomic force microscopy (AFM) using an Asylum MFP-3D-SA instrument (Santa Barbara, Calif.), and a calcium ion-selective electrode (ISE, ThermoScientific).
ISE measurements can be used to screen peptide efficacy, but provide little information regarding the specificity of peptide binding to different surfaces of COM crystals. To this end, Applicants used a second analysis step to identify the effect of peptides on COM crystal size and habit. The influence of the peptide library on macroscopic properties of COM crystals was assessed using bulk crystallization studies and optical and scanning electron microscopy to characterize COM crystals grown in the presence of peptides. In vitro, COM crystallization yields elongated hexagonal platelets with {100} basal surfaces bounded by {010} and crystallographically equivalent {121} apical surfaces (FIG. 3A). […] Applicants observed that multiple peptides in the library reduced growth along the directions, which decreased the crystal aspect ratio (length-to-width) and shifted the morphology from hexagonal to diamond platelets. This change in crystal habit can be attributed to the preferential binding of peptides to COM {121} surfaces, which slows growth along the naturally fast growth directions within the (100) plane.
To more systematically assess the surface topography of COM crystals, Applicants used atomic force microscopy (AFM) to probe the effect of peptides on COM (100) surface roughness. Crystals extracted from control and peptide D5 batches were prepared on AFM sample disks and imaged in air. The RMS roughness for (100) surfaces of hexagonal-shaped crystals from the control and test peptide D5 were approximately 1.0 and 4.3 nm, respectively.
Crystal batches prepared in bulk studies were analyzed using optical microscopy to quantify changes in COM crystal size and aspect ratio. […] Although there were clear differences in the percent population of diamond-shaped crystals among peptides tested in this study, Applicants observed that the size of diamond crystals were generally the same, irrespective of peptide sequence (FIG. 4B). The majority of COM hexagonal platelets in peptide samples had similar size and aspect ratio as the control (here Applicants only report the length of COM crystals in FIG. 4B). A notable exception, however, was peptide D4, which produced a 22% increase in the length-to-width aspect ratio of COM hexagonal crystals, and an increase in the length from 35 μm (control) to 75 μm (peptide D4).

Assay [5] in a line: High-throughput colorimetric calcium depletion assay (crystallization half-time). As to conditions: 37° C., crystallization volume 600 μL, shaking; logistic fit. Here is the method:
as §1
Time course of depletion of free calcium in the crystallization solution, normalized to the initial concentration, was fitted to a nonlinear logistic function using OriginPro Software (Origin Lab, Northhampton, Mass.). The logistic function relating calcium concentration to time is given by
where [Ca]t is the normalized calcium concentration at time t, A1 is the normalized initial supersaturation concentration (i.e at t=0), A2 is the normalized equilibrium concentration (i.e. at t=∞), p is the hill coefficient which represents slope of the curve at midpoint, and t1/2 is the crystallization half-time (CHT), defined as the time at which crystallization is 50% complete (i.e. [Ca]t1/2=[…]). A1 was fixed at 1, and A2, p and t1/2 were obtained from fitting the data to equation 1. CHT was used as a measure of inhibition potentials of the peptides. A one-way ANOVA in combination with Tukey post hoc test at p<0.05 level was used to probe statistical significance. Applicants' studied the effects of experimental parameters including volume, shaking and temperature on crystallization in designing a high-throughput screening assay. Applicants have shown the logistic model effectively represents the three phases: induction, crystal growth and equilibrium observed in our setup, and CHT (t1/2) can be used as a measure of efficacy of potential crystal growth modifiers. The peptide library screened comprised of Asp and Ala residues (peptides D1-D13) at optimized assay conditions of 37° C., crystallization volume of 600 μL in a shaking environment. […] The high throughput of the assay provides the opportunity to assess the growth modulation potential of crystal growth modifiers at varying modifier concentrations, supersaturations and ionic strengths with relative ease. […] Finally, the assay can be translated to other crystallization systems in a relatively straightforward fashion for rational design and discovery of growth modifiers for specific applications.

Entries after “also recorded” stand apart in the source; their conditions may differ.

Consider five molecules from patent US10246489B2, “Peptide inhibitors of calcium oxalate monohydrate crystallization and uses thereof” (UNIVERSITY OF HOUSTON, priority 2013, dated 2019).

For orientation: % inhibition means the change of the read-out against control, counted positive when it falls.

With `O=C(O)CC(O)(CC(=O)O)C(=O)O` [citrate, reference compound], the “percent reduction in COM growth rate” value in assay [1] is listed as 28±6%. Moreover, in assay [2], the “reduction in COM growth rate” value is reported as 48%.

As for “A-E-A-E-A-E-A-E-A-E-A-E-A-E-A-E-A-E (AEAEAEAEAEAEAEAEAE; Synthesized Calcium oxalate monohydrate inhibitory polypeptide) [E10]”, the “inhibition of COM crystal growth (calcium in supernatant over time)” value in assay [3] was “inhibition of COM crystal growth; also recorded: more effective inhibitor than E11”.

Consider “E-E-E-E-E-E-E-E-E-E-E-E-E-E-E-E-E-E (EEEEEEEEEEEEEEEEEE; Synthesized Calcium oxalate monohydrate inhibitory polypeptide) [E11]”, for which the “inhibition of COM crystal growth (calcium in supernatant over time)” value in assay [3] was “inhibition of COM crystal growth”.

Turning to “ADAAADDAAADAAAADAA (Synthesized Calcium oxalate monohydrate inhibitory polypeptide) [D8]”, the “percent reduction in COM growth rate” value in assay [1] is approximately 6%. For the same molecule, the “increase in peptide efficacy on replacing L-Ala spacer with L-Asp binder (relative to peptide D7)” value in assay [1] (ISE, 20 μg/ml, series D7, D8, D9) is reported as “an order of magnitude increase in efficacy”. The “percentage of diamond-shaped crystals in total crystal population” value in assay [4] (20 μg/ml peptide, 60° C. for 3 days, optical microscopy, average of three experiments) is recorded as “largest populations of diamond-shaped crystals”. In addition, the “population of diamond crystals on doubling peptide concentration” value in assay [4] (concentration increased from 20 to 40 μg/ml) was “did not observe an appreciable increase in the population of diamond crystals”. The “CHT (hr), crystallization half-time” value in assay [5] is 4.792 h.

As for “ADAADAADAADAADAADA (Synthesized Calcium oxalate monohydrate inhibitory polypeptide) [D4]”, the “percent reduction in COM growth rate” value in assay [1] turned out to be 20%. The “% inhibition” value in assay [1] (ISE slopes in the presence of 20 μg/mL peptide, comparison X = D vs X = E) worked out at 21 ± 10%. Moreover, the “[001] length of COM hexagonal crystals” value in assay [4] (20 μg/ml peptide, control 35 μm) amounted to 75 μm. Besides, in assay [4] (20 μg/ml peptide, vs control (2.67±0.05)), the “increase in the length-to-width aspect ratio of COM hexagonal crystals” value was 22%. Moreover, the “COM crystal habit / morphology” value in assay [4] (SEM, bulk crystallization with 20 μg/ml peptide) is “higher length-to-width aspect ratio”. Besides, the “CHT (hr), crystallization half-time” value in assay [5] was 4.432 h.
